This is an account of results in ChEMBL document CHEMBL3832083.

The structures appear in SMILES notation.

A short description of the data set: clinical. The conditions noted are these: human, in vivo, po.

By fraction unbound is commonly meant free concentration divided by total concentration. The low end stands for little free substance, the high end for much free substance. Turning to `Nc1nc2ccc(OC(F)(F)F)cc2s1` [RILUZOLE], the fraction unbound was 0.04.
